Measured values as given in patent publication US12129313B2, “Anti-inflammatory use of peptide” (ENLITISA (SHANGHAI) PHARMACEUTICAL CO., LTD, priority 2017, dated 2024).

What was measured:
IFN-γ = experiment: Air pouch model: ELISA of exudate for IFN-γ; assay type: in vivo, mice; conditions: ±SD, doses and timing per Table 1
Experimental: (§1) Air pouches were produced by subcutaneous injection of sterile air (5 mL) into the intrascapular area of the mice. After three days, another injection of air (3 mL) was performed to maintain the pouches. In order to induce acute inflammation, three days after this final injection, animals received an injection of sterile carrageenan solution (CP Kelco, Taixing, Jiangsu Province, China; 1%, 0.5 mL; produced by adding 0.1 g of carrageenan powder into a beaker containing 10 mL of 0.9% saline solution and stirring). Mice were pre-treated with test samples or vehicle 1 hour before and 23 hours after the carrageenan injection into the subcutaneous air pouch. […]
(§2) Exudates were collected and volumes were quantified. The total number of cells was determined with a haematocytometer (ADVIA 2120 Hematology System, Siemens Healthineers). The exudates were centrifuged at 3000 rpm for 10 minutes at 4° C., and the supernatants were collected and stored at −20° C. for ELISA analysis using standard ELISA test kits (Biolegend™ from Dakewe Biotech Co., Beijing, China or Abcam™, Abcam (Shanghai) Trading Co. Ltd, China) and an ELISA reader (SH-1000 Hitachi, Japan) for tissue necrosis factor alpha (TNF-α), interleukin 1 beta (IL-1β), interleukin 6 (IL-6), interleukin 10 (IL-10), prostaglandin E2 (PGE2), interferon gamma (IFN-γ) and 5-hydroxytryptamine (5-HT; serotonin). […]

C57BL/6 mice [1] = experiment: Air pouch model: histology scoring of pouch wall (HE stained slices); assay type: in vivo; set-up: key to Inflammation score / Edema Score / Motility score: 1 = mild, 2 = moderate, 3 = severe
Experimental: (§3) Air pouches were produced by subcutaneous injection of sterile air (5 mL) into the intrascapular area of the mice. After three days, another injection of air (3 mL) was performed to maintain the pouches. In order to induce acute inflammation, three days after this final injection, animals received an injection of sterile carrageenan solution (CP Kelco, Taixing, Jiangsu Province, China; 1%, 0.5 mL; produced by adding 0.1 g of carrageenan powder into a beaker containing 10 mL of 0.9% saline solution and stirring). Mice were pre-treated with test samples or vehicle 1 hour before and 23 hours after the carrageenan injection into the subcutaneous air pouch. Animals were sacrificed 24 hours after the carrageenan injection.
Skin biopsies were taken from the air pouches. A part of the biopsy was fixed in formalin (produced by adding ultra pure water to 50 mL of a 40% formaldehyde solution (Nanchang Rain Dew Experimental Equipment Co., Ltd., Nanchang, […] Provence, China) up to a total volume of 500 mL) and analyzed by histological embedding in paraffin wax, sectioning and staining.
The histological specimens were analysed and an inflammation score, a motility score, an edema score and […] were estimated as follows.
The HE stained slices were observed under an optical microscope and were scored (1, 2 or 3 points) according to the perceived inflammation level (in cases showing only a small amount of inflammatory cells scattered in the area—1 point (mild); in cases where many inflammatory cells were observed—2 points (moderate); and, in cases with diffuse infiltration—3 points (severe)). A similar scoring system was employed for edema levels (3 points for most severe and 1 point for mild) after overall observation. Motility scores represented the density of neutrophils, which employed the same methodology as that employed for inflammatory cells.

C57BL/6 mice [2] = experiment: Air pouch model (carrageenan): exudate volume, pouch wall weight, exudate cell count; assay type: in vivo
Experimental: Healthy adult male C57BL/6 mice weighing between 20 and 30 g were supplied by Nanjing Biomedical Research Institute (NBRI) of Nanjing University, China. Prior to any experiments being conducted, mice were housed under standardized conditions (at a constant temperature or 22±2° C., with alternating 12 hour periods of light and darkness), and were fed on a standard mouse diet with water, for about a week.
General anesthesia was induced using intraperitoneal 3% chloral hydrate (Sinopharm Chemical Reagent Co., Ltd., Shanghai, China); 1 mL/10 g of body weight). The hair of the entire dorsum was shaved and depilated 1 day before sterile air injection.
as §3
The cavity was washed with 4 mL of sterile phosphate buffer solution (pH 7.4; prepared by dissolving 4 g of NaCl, 0.1 g of KCl, 1.749 g of Na2HPO4.12H2O and 0.1 g of KH2PO4 in ultrapure water, adjusting the pH to 7.4 with HCl and diluting with water to a total volume of 500 mL).
Exudates were collected and volumes were quantified. The total number of cells was determined with a haematocytometer (ADVIA 2120 Hematology System, Siemens Healthineers). The exudates were centrifuged at 3000 rpm for 10 minutes at 4° C., and the supernatants were collected and stored at −20° C. for ELISA analysis using standard ELISA test kits (Biolegend™ from Dakewe Biotech Co., Beijing, China or Abcam™, Abcam (Shanghai) Trading Co. Ltd, China) and an ELISA reader (SH-1000 Hitachi, Japan) for tissue necrosis factor alpha (TNF-α), interleukin 1 beta (IL-1β), interleukin 6 (IL-6), interleukin 10 (IL-10), prostaglandin E2 (PGE2), interferon gamma (IFN-γ) and 5-hydroxytryptamine (5-HT; serotonin).
After conducting some preliminary experiments to validate the model, an experiment was conducted in which mice were treated by administering test samples or vehicle in accordance with Table 1 below.
In Table 1, the M1-B, M2-B, M1-A and M2-A samples are MAP (Mefp-1) solutions of specified concentrations administered at different times relative to the carrageenan injection, as specified in the table. The solutions were prepared as follows. Blue mussels were harvested in the coastal area of Shandong Province, China. Mussel feet were collected, cut into small pieces and homogenized in an extraction buffer comprising 5% acetic acid in 4 mol/L of aqueous urea. The crude extracts were collected after centrifuging and then purified by liquid chromatography. The purified protein (semi-finished product; concentration 8 mg/mL; purity as measured by HPLC 91.72%; pH 4.2) was stored at 0° C. The solutions that were employed below were prepared by adding saline solution to this semi-finished product to obtain the concentrations described in Table 1.
Also in Table 1, “Test” is MAP Peptide, which was obtained from Innovagen AB, Sweden. The peptide was synthesized according to the relevant Mefp-1 amino acid sequence. The peptide powder was stored at −20° C. and dissolved in saline water at a concentration of 3.0 mg/mL, pH 5.5.
Dexamethasone (MedChemExpress, Shanghai, China) was obtained in powder form and dissolved in ultrapure water to obtain a solution with a concentration as described in Table 1.
All the substances listed in Table 1 were administrated topically by directly injecting into the air pouches.

TNF-α = experiment: Air pouch model: ELISA of exudate for TNF-α; assay type: in vivo, mice; conditions: ±SD, doses and timing per Table 1
Experimental: as §1, §2

IL-6 = experiment: Air pouch model: ELISA of exudate for IL-6; assay type: in vivo, mice; conditions: ±SD, doses and timing per Table 1
Experimental: as §3
Exudates were collected and volumes were quantified. […] The exudates were centrifuged at 3000 rpm for 10 minutes at 4° C., and the supernatants were collected and stored at −20° C. for ELISA analysis using standard ELISA test kits (Biolegend™ from Dakewe Biotech Co., Beijing, China or Abcam™, Abcam (Shanghai) Trading Co. Ltd, China) and an ELISA reader (SH-1000 Hitachi, Japan) for tissue necrosis factor alpha (TNF-α), interleukin 1 beta (IL-1β), interleukin 6 (IL-6), interleukin 10 (IL-10), prostaglandin E2 (PGE2), interferon gamma (IFN-γ) and 5-hydroxytryptamine (5-HT; serotonin).

[3] = histological description in words

C[C@@H]1C[C@H]2[C@@H]3CCC4=CC(=O)C=C[C@]4(C)[C@@]3(F)[C@@H](O)C[C@]2(C)[C@@]1(O)C(=O)CO [Positive, Dexamethasone, reference compound]
IFN-γ (IFN-γ): 388.83 ± 130.02 | Motility score (C57BL/6 mice [1]; density of neutrophils, 1 to 3 points, doses and timing per Table 1): 0.67 | chronic inflammatory cell infiltration of the pouch wall (C57BL/6 mice [1]; [3]): moderate chronic inflammatory cell infiltration | edema of the pouch wall (C57BL/6 mice [1]; [3]): moderate interstitial edema | neutrophil infiltration of the pouch wall (C57BL/6 mice [1]; [3]): a small amount of neutrophil infiltration | Edema Score (C57BL/6 mice [1]; pouch wall histology, 1 mild to 3 most severe, doses and timing per Table 1): 1.67 | Inflammation score (C57BL/6 mice [1]; pouch wall histology, 1 mild to 3 severe, doses and timing per Table 1): 1.83 | Sum (C57BL/6 mice [1]; sum of inflammation, edema and motility scores): 4.17 | Leukocyte (total cell count and classification) (C57BL/6 mice [2]; air pouch exudate, doses and timing per Table 1): 3.49e+06 mL⁻¹ | Pouch Wall Weight (C57BL/6 mice [2]; mean ± SD, 24 hours after carrageenan, doses and timing per Table 1): 0.63 ± 0.09 g | Exudate volume (C57BL/6 mice [2]; mean ± SD, 24 hours after carrageenan, injected into air pouch, per mouse: Positive 200 μg, M1-B/M1-A/Test 1.5 mg, M2-B/M2-A 4.5 mg, timing 1 hour (Positive, -B, Test) or 6 hours (-A), Table 1): 3.3 ± 0.15 mL | TNF-α (TNF-α): 65.08 ± 7.70 | IL-6 (IL-6): 428.05 ± 267.27
